PubChem BioAssay (NCI)
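Five concentrations, 48 hours, 96-well plates. GI50 marks 50% less growth. TGI: total growth inhibition.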

How the values were obtained:
Test in all cases: inhibition of tumour cell growth, NCI panel, 48 h
SNB-19 CNS = test system: SNB-19 CNS
OVCAR-5 ovarian = test system: OVCAR-5 ovarian
SNB-75 CNS = test system: SNB-75 CNS
OVCAR-4 ovarian = test system: OVCAR-4 ovarian
HT29 colon = test system: HT29 colon
RPMI-8226 leukemia = test system: RPMI-8226 leukemia
TK-10 renal = test system: TK-10 renal
HL-60(TB) leukemia = test system: HL-60(TB) leukemia
HOP-92 NSCLC = test system: HOP-92 NSCLC
UO-31 renal = test system: UO-31 renal

c1ccc2c(-c3nc4ccccc4[nH]3)cccc2c1
GI50 (SNB-19 CNS): 4.26 µM
TGI (SNB-19 CNS): 40.4 µM
GI50 (OVCAR-5 ovarian): 8.35 µM
TGI (OVCAR-5 ovarian): > 100 µM
GI50 (SNB-75 CNS): 2.35 µM
TGI (SNB-75 CNS): 13.5 µM
GI50 (OVCAR-4 ovarian): 10.9 µM
TGI (OVCAR-4 ovarian): > 100 µM
GI50 (HT29 colon): 2.68 µM
TGI (HT29 colon): 11.8 µM
GI50 (RPMI-8226 leukemia): 3.19 µM
TGI (RPMI-8226 leukemia): 34.5 µM
GI50 (TK-10 renal): 8.15 µM
TGI (TK-10 renal): 55.7 µM
GI50 (HL-60(TB) leukemia): 2.78 µM
TGI (HL-60(TB) leukemia): 14.8 µM
GI50 (HOP-92 NSCLC): 4.27 µM
TGI (HOP-92 NSCLC): 38.2 µM
GI50 (UO-31 renal): 4.72 µM
TGI (UO-31 renal): 33.3 µM

COc1cc(Nc2ncc3c(C)nc(-c4cccc(Oc5ccccc5)c4)n3n2)cc(OC)c1OC
GI50 (SNB-19 CNS): 12.1 µM
TGI (SNB-19 CNS): > 25 µM
GI50 (OVCAR-5 ovarian): 11.6 µM
TGI (OVCAR-5 ovarian): > 25 µM
GI50 (SNB-75 CNS): 5.14 µM
TGI (SNB-75 CNS): > 25 µM
GI50 (OVCAR-4 ovarian): 4.78 µM
TGI (OVCAR-4 ovarian): > 25 µM
GI50 (HT29 colon): 5.71 µM
TGI (HT29 colon): 16.3 µM
GI50 (RPMI-8226 leukemia): 6.08 µM
TGI (RPMI-8226 leukemia): > 25 µM
GI50 (TK-10 renal): 3.52 µM
TGI (TK-10 renal): > 20.6 µM
GI50 (HL-60(TB) leukemia): 6.01 µM
TGI (HL-60(TB) leukemia): 14.1 µM
GI50 (HOP-92 NSCLC): 6.29 µM
TGI (HOP-92 NSCLC): > 24.1 µM
GI50 (UO-31 renal): 1.39 µM
TGI (UO-31 renal): 18.2 µM

CNc1cccnc1/C=N/NC(N)=S
TGI (SNB-19 CNS): > 10 µM
TGI (OVCAR-5 ovarian): 9.78 µM
TGI (SNB-75 CNS): > 7.14 µM
TGI (OVCAR-4 ovarian): > 10 µM
TGI (HT29 colon): > 10 µM
TGI (RPMI-8226 leukemia): > 10 µM
TGI (TK-10 renal): > 10 µM
TGI (HL-60(TB) leukemia): > 6.25 µM
TGI (HOP-92 NSCLC): > 10 µM
TGI (UO-31 renal): 4.5 µM

Cc1ccc([N+](=O)[O-])cc1NC(=O)C(=O)Cc1cc(=O)oc2cc(O)ccc12
TGI (SNB-19 CNS): > 100 µM
TGI (OVCAR-5 ovarian): > 100 µM
TGI (SNB-75 CNS): > 100 µM
TGI (OVCAR-4 ovarian): > 100 µM
TGI (HT29 colon): > 100 µM
TGI (RPMI-8226 leukemia): 75.3 µM
TGI (TK-10 renal): > 100 µM
TGI (HL-60(TB) leukemia): > 100 µM
TGI (HOP-92 NSCLC): > 100 µM
TGI (UO-31 renal): > 100 µM

COc1ccc(CC2NCCc3cc(OC)c(OC)cc32)cc1 (centres undefined)
TGI (SNB-19 CNS): > 100 µM
TGI (OVCAR-5 ovarian): > 100 µM
TGI (SNB-75 CNS): > 100 µM
TGI (OVCAR-4 ovarian): > 100 µM
TGI (HT29 colon): > 100 µM
TGI (RPMI-8226 leukemia): > 100 µM
TGI (TK-10 renal): > 100 µM
TGI (HL-60(TB) leukemia): > 100 µM
TGI (HOP-92 NSCLC): > 100 µM
TGI (UO-31 renal): > 100 µM

CS(=O)(=O)Nc1cccc(-c2ccc3c(NC(=O)C4CC4)n[nH]c3c2)c1
GI50 (SNB-19 CNS): 3.64 µM
TGI (SNB-19 CNS): > 25 µM
GI50 (OVCAR-5 ovarian): 12.7 µM
TGI (OVCAR-5 ovarian): > 25 µM
GI50 (SNB-75 CNS): 4.6 µM
TGI (SNB-75 CNS): > 25 µM
GI50 (OVCAR-4 ovarian): 2.68 µM
TGI (OVCAR-4 ovarian): > 25 µM
GI50 (HT29 colon): 3.88 µM
TGI (HT29 colon): > 25 µM
GI50 (RPMI-8226 leukemia): 10.8 µM
TGI (RPMI-8226 leukemia): > 25 µM
GI50 (TK-10 renal): 24.6 µM
TGI (TK-10 renal): > 25 µM
GI50 (HL-60(TB) leukemia): 1.73 µM
TGI (HL-60(TB) leukemia): 10.8 µM
TGI (HOP-92 NSCLC): > 25 µM
GI50 (UO-31 renal): 24.8 µM
TGI (UO-31 renal): > 25 µM

O=C(Nc1cccc([N+](=O)[O-])c1)c1ccc2ccccc2c1O
GI50 (SNB-19 CNS): 4.05 µM
TGI (SNB-19 CNS): > 85.4 µM
GI50 (OVCAR-5 ovarian): 20.6 µM
TGI (OVCAR-5 ovarian): > 100 µM
GI50 (SNB-75 CNS): 17 µM
TGI (SNB-75 CNS): > 100 µM
GI50 (OVCAR-4 ovarian): 4.95 µM
TGI (OVCAR-4 ovarian): > 100 µM
GI50 (HT29 colon): 22 µM
TGI (HT29 colon): > 100 µM
GI50 (RPMI-8226 leukemia): 1.28 µM
TGI (RPMI-8226 leukemia): 5.99 µM
GI50 (TK-10 renal): 4.59 µM
TGI (TK-10 renal): > 47.4 µM
GI50 (HL-60(TB) leukemia): 4.71 µM
TGI (HL-60(TB) leukemia): > 44.5 µM
GI50 (HOP-92 NSCLC): 1.77 µM
TGI (HOP-92 NSCLC): 6.71 µM
GI50 (UO-31 renal): 3.35 µM
TGI (UO-31 renal): > 53 µM

Nc1ccc(C(=O)NN2C(=O)C(Cl)C2c2ccc([N+](=O)[O-])cc2)cc1 (centres undefined)
TGI (SNB-19 CNS): 26 µM
TGI (OVCAR-5 ovarian): 41.6 µM
TGI (SNB-75 CNS): 24.5 µM
TGI (OVCAR-4 ovarian): 26.4 µM
TGI (HT29 colon): 32.6 µM
TGI (RPMI-8226 leukemia): 42.8 µM
TGI (TK-10 renal): 33.5 µM
TGI (HL-60(TB) leukemia): 4.65 µM
TGI (HOP-92 NSCLC): 37.1 µM
TGI (UO-31 renal): 30.8 µM
